Several values for one entry are separate records, joined by “and”; a condition that tells them apart may be missing. Equal values may be shown once. Entries after “also recorded” stand apart in the source; their conditions may differ. Read-outs that look alike come from different tables or passages of the source.
Experiment: Plasma kinetics in rat following intravenous and oral administration
Assay type: in vivo, Sprague Dawley rats
Conditions: male rats; for concentration at 24 h: iv; for MRT: read-out: MRT
Experimental: This study determined the intravenous pharmacokinetics and oral bioavailability of compound 1 of the invention (see FIG. 1A, structure no. 1), compound 2 of the invention (see FIG. 1D, structure no. 19) and compound 3 of the invention (see FIG. 1I, structure no. 53) following administration to Sprague Dawley rats at a dose level of 10 mg/kg.
Six groups of 3 male rats received either a single intravenous or single oral administration of compound 1, 2 or 3 of the invention at a dose level of 10 mg/kg. Blood samples were obtained at various times after dosing. Plasma samples were analysed for unchanged test item using a suitable LC-MS/MS method. Pharmacokinetic parameters were estimated from individual plasma concentrations.
Eighteen male rats each received either a single intravenous or a single oral administration of either compound 1, 2 or 3 at a dose level of 10 mg/kg. The formulation was orally administered to each animal by gastric gavage and intravenously administered to each animal via a tail vein. The dose was administered at a dose volume of 5 mL/kg. The formulations were administered to each animal according to the details in the following table:
Blood samples (ca 0.3 mL) were removed from the femoral vein of each animal into tubes containing lithium heparin as anticoagulant.
Blood samples were collected from 3 rats at the following times after dose administration: • 3, 6, 15, 45 min and 1.5, 2.5, 4, 6, 8, 24 h post dose. Oral Administration
Blood samples were collected from 3 rats at the following times after dose administration: • 5, 15, 45 min and 1.5, 2.5, 4, 6, 8, 24 h post dose. Processing of Blood Samples
Pharmacokinetic parameters of compound 1, 2 and 3 were derived by non-compartmental analysis using WinNonLin Pro version 5.0.1 (Pharsight 2005). The following parameters were derived, where appropriate, from the individual plasma concentration versus time profiles:
• F % The absolute oral bioavailability calculated as [AUC0-t (oral)*Dose(iv)/AUC0-t (iv)*Dose (oral)]*100 based on mean values derived after oral and intravenous administration Consideration was given to the estimation of λz and corresponding t1/2 values. Three or more points are required within the terminal phase for λz and t1/2 to be estimated. The following additional variables were tabulated to aid identification of potentially unreliable estimates of t1/2 and AUC:
Pharmacokinetic parameters were reported as geometric mean except Tmax which was reported as the median. Geometric coefficient of variation was calculated as: […]
Actual sampling times were used for all calculations of pharmacokinetic parameters. Plasma concentrations that were below the limit of quantification were taken as zero for the pharmacokinetic analysis.

[1] = male, Sprague Dawley, rat, plasma, po, 10 mg/kg, oral 10 mg/kg, individual animals
[2] = oral 10 mg/kg, individual animals, acetate, 10 mg/kg

Compound N=C(N)NN=CC=Cc1cccn1-c1ccccc1[N+](=O)[O-] [Compound 2, [1-(2-nitrophenyl)-1H-pyrrol-2-yl-allylideneamino]guanidinium acetate] has a concentration at 24 h (male, Sprague Dawley, rat, plasma, 10 mg/kg, single intravenous 10 mg/kg, 24 h, individual animals, LLOQ 2.50, read-out: Sample Concentration in plasma) of 3.95 ng/mL, a concentration at 24 h (male, Sprague Dawley, rat, plasma, 10 mg/kg, single intravenous 10 mg/kg, 24 h, mean, read-out: Mean Concentration in plasma) of 3.95 ng/mL and an AUC(0-t) (male, Sprague Dawley, rat, plasma, po, 10 mg/kg, oral 10 mg/kg, Arithmetic Mean, read-out: AUC0-t) of 67.4 ng·h/mL. The Cmax (male, Sprague Dawley, rat, plasma, po, 10 mg/kg, oral 10 mg/kg, Arithmetic Mean, read-out: Cmax) was 31.2 ng/mL, the Tmax (male, Sprague Dawley, rat, plasma, po, 10 mg/kg, oral 10 mg/kg, Arithmetic Mean, read-out: tmax) was 1.75 h and the AUC(0-t) (male, Sprague Dawley, rat, plasma, po, 10 mg/kg, oral 10 mg/kg, Geometric mean, read-out: AUC0-t) was 66.1 ng·h/mL. For the same compound, the Cmax (male, Sprague Dawley, rat, plasma, po, 10 mg/kg, oral 10 mg/kg, Geometric mean, read-out: Cmax) was 26.3 ng/mL, the MRT (male, Sprague Dawley, rat, plasma, po, 10 mg/kg, oral 10 mg/kg, Geometric mean) was 3.06 h and the half-life (male, Sprague Dawley, rat, plasma, po, 10 mg/kg, oral 10 mg/kg, Geometric mean, read-out: t1/2 (converted)) was 2.25 h. For the same compound, the Tmax (male, Sprague Dawley, rat, plasma, po, 10 mg/kg, oral 10 mg/kg, Geometric mean, read-out: tmax) was 1.16 h, the AUC(0-t) (male, Sprague Dawley, rat, plasma, po, 10 mg/kg, oral 10 mg/kg, Median, read-out: AUC0-t) was 62.6 ng·h/mL and the Cmax (male, Sprague Dawley, rat, plasma, po, 10 mg/kg, oral 10 mg/kg, Median, read-out: Cmax) was 18.8 ng/mL. For the same compound, the Tmax (male, Sprague Dawley, rat, plasma, po, 10 mg/kg, oral 10 mg/kg, Median, read-out: tmax) was 2.5 h, the AUC(0-inf) [1] was 102 ng·h/mL and the AUC(0-t) (male, Sprague Dawley, rat, plasma, po, 10 mg/kg, oral 10 mg/kg, individual animals, read-out: AUC0-t) was 85.6 ng·h/mL. The MRT [1] was 3.06 h, the half-life (male, Sprague Dawley, rat, plasma, po, 10 mg/kg, oral 10 mg/kg, individual animals, read-out: t1/2 (converted)) was 2.25 h and the Tmax (male, Sprague Dawley, rat, plasma, po, 10 mg/kg, oral 10 mg/kg, from mean plasma concentrations, read-out: time post dose at which maximum plasma concentration was observed (tmax)) was 2.5 h. For the same compound, the half-life (male, Sprague Dawley, rat, plasma, po, 10 mg/kg, oral 10 mg/kg, read-out: apparent terminal half-life (converted)) was 2.25 h, the concentration at 0.05 h (male, Sprague Dawley, rat, plasma, po, 10 mg/kg, single oral 10 mg/kg, 0.05 h, individual animals, LLOQ 2.50, read-out: Sample Concentration in plasma) was 4.68 ng/mL and the concentration at 0.05 h (male, Sprague Dawley, rat, plasma, po, 10 mg/kg, single oral 10 mg/kg, 0.05 h, mean, read-out: Mean Concentration in plasma) was 4.68 ng/mL. The concentration at 0.25 h (male, Sprague Dawley, rat, plasma, po, 10 mg/kg, single oral 10 mg/kg, 0.25 h, mean of 3, read-out: Mean Concentration in plasma) was 25.5 ng/mL, the concentration at 0.75 h (male, Sprague Dawley, rat, plasma, po, 10 mg/kg, single oral 10 mg/kg, 0.75 h, mean of 3, read-out: Mean Concentration in plasma) was 13.9 ng/mL and the concentration at 1.5 h (male, Sprague Dawley, rat, plasma, po, 10 mg/kg, single oral 10 mg/kg, 1.5 h, individual animals, read-out: Sample Concentration in plasma) was 9.56 ng/mL. The concentration at 1.5 h (male, Sprague Dawley, rat, plasma, po, 10 mg/kg, single oral 10 mg/kg, 1.5 h, mean of 3, read-out: Mean Concentration in plasma) was 12.3 ng/mL, the concentration at 2.5 h (male, Sprague Dawley, rat, plasma, po, 10 mg/kg, single oral 10 mg/kg, 2.5 h, individual animals, read-out: Sample Concentration in plasma) was 16.5 ng/mL and the concentration at 2.5 h (male, Sprague Dawley, rat, plasma, po, 10 mg/kg, single oral 10 mg/kg, 2.5 h, mean of 3, read-out: Mean Concentration in plasma) was 17.1 ng/mL. It also gave a concentration at 4 h (male, Sprague Dawley, rat, plasma, po, 10 mg/kg, single oral 10 mg/kg, 4 h, mean of 3, read-out: Mean Concentration in plasma) of 7.91 ng/mL, a concentration at 6 h (male, Sprague Dawley, rat, plasma, po, 10 mg/kg, single oral 10 mg/kg, 6 h, individual animals, read-out: Sample Concentration in plasma) of 2.76 ng/mL and a concentration at 6 h (male, Sprague Dawley, rat, plasma, po, 10 mg/kg, single oral 10 mg/kg, 6 h, mean of 3, read-out: Mean Concentration in plasma) of 3.81 ng/mL. The MAT (oral 10 mg/kg, individual animals) was -0.465 h, the AUC(0-t) [2] was 62.6 ng·h/mL and 54.0 ng·h/mL and the Cmax [2] was 58.4 ng/mL and 16.5 ng/mL. For the same compound, the Tmax [2] was 0.250 h, the “maximum observed plasma concentration, mean value” (oral 10 mg/kg, at tmax) was 17.1 ng/mL and the “Sample Concentration in plasma” value (single intravenous 10 mg/kg, 0.05 h, individual animals, acetate, 10 mg/kg) was 2270 ng/mL and 3150 ng/mL. For the same compound, the “Sample Concentration in plasma” value (single intravenous 10 mg/kg, 0.1 h, individual animals, acetate, 10 mg/kg) was 1020 ng/mL and 1410 ng/mL, the “Sample Concentration in plasma” value (single intravenous 10 mg/kg, 0.25 h, individual animals, acetate, 10 mg/kg) was 612 ng/mL and 712 ng/mL and the “Sample Concentration in plasma” value (single intravenous 10 mg/kg, 0.75 h, individual animals, acetate, 10 mg/kg) was 237 ng/mL and 334 ng/mL. The “Sample Concentration in plasma” value (single intravenous 10 mg/kg, 1.5 h, individual animals, acetate, 10 mg/kg) was 232 ng/mL and 168 ng/mL, the “Sample Concentration in plasma” value (single intravenous 10 mg/kg, 2.5 h, individual animals, acetate, 10 mg/kg) was 183 ng/mL and 194 ng/mL and the “Sample Concentration in plasma” value (single intravenous 10 mg/kg, 4 h, individual animals, acetate, 10 mg/kg) was 158 ng/mL and 115 ng/mL. The “Sample Concentration in plasma” value (single intravenous 10 mg/kg, 6 h, individual animals, acetate, 10 mg/kg) was 116 ng/mL and 58.1 ng/mL, the “Sample Concentration in plasma” value (single intravenous 10 mg/kg, 8 h, individual animals, LLOQ 2.50, acetate, 10 mg/kg) was 42.7 ng/mL and 98.4 ng/mL and 54.1 ng/mL and the “Sample Concentration in plasma” value (single intravenous 10 mg/kg, 24 h, individual animals, LLOQ 2.50, acetate, 10 mg/kg) was “<LLOQ”. For the same compound, the adverse effects (single intravenous or oral administration, 10 mg/kg, acetate) was “No adverse effects; also recorded: No adverse affects”, the “Sample Concentration in plasma” value (single oral 10 mg/kg, 0.05 h, individual animals, LLOQ 2.50, acetate, 10 mg/kg) was “<LLOQ” and the “Sample Concentration in plasma” value (single oral 10 mg/kg, 0.25 h, individual animals, acetate, 10 mg/kg) was 9.11 ng/mL and 9.01 ng/mL and 58.4* ng/mL. For the same compound, the “Sample Concentration in plasma” value (single oral 10 mg/kg, 0.75 h, individual animals, acetate, 10 mg/kg) was 9.02 ng/mL and 10.4 ng/mL and 22.4 ng/mL, the “Sample Concentration in plasma” value (single oral 10 mg/kg, 1.5 h, individual animals, acetate, 10 mg/kg) was 9.84 ng/mL and 17.4 ng/mL and the “Sample Concentration in plasma” value (single oral 10 mg/kg, 2.5 h, individual animals, acetate, 10 mg/kg) was 18.8 ng/mL and 16.1 ng/mL. The “Sample Concentration in plasma” value (single oral 10 mg/kg, 4 h, individual animals, acetate, 10 mg/kg) was 12.6 ng/mL and 4.79 ng/mL and 6.35 ng/mL, the “Sample Concentration in plasma” value (single oral 10 mg/kg, 6 h, individual animals, acetate, 10 mg/kg) was 3.74 ng/mL and 4.94 ng/mL and the “Sample Concentration in plasma” value (single oral 10 mg/kg, 8 h, individual animals, LLOQ 2.50) was “<LLOQ”. For the same compound, the “Mean Concentration in plasma” value (single oral 10 mg/kg, 8 h, mean, LLOQ 2.50) was “<LLOQ”, the “Sample Concentration in plasma” value (single oral 10 mg/kg, 24 h, individual animals, LLOQ 2.50) was “<LLOQ” and the “Mean Concentration in plasma” value (single oral 10 mg/kg, 24 h, mean, LLOQ 2.50) was “<LLOQ”.

From US8058306B2, “Phenyl pyrrole aminoguanidine derivatives” (Action Pharma A/S, priority 2006, dated 2011)
